Data on two compounds can be found in patent US20040167097A1, “EPO D + 5-FU/gemcitabine” (priority 2002, published 2004).

Like-named read-outs stand apart in the source and are kept apart here.

The subject of one data set is thymidine phosphorylase. The experiment in a line: Production of thymidine phosphorylase in tumor cells. Type of data set: cell-based. To be noted: some tumor cells; preliminary experiments.
Data set [1] is described as follows: Pharmacokinetics after infusion. The class given is in vivo. The text has this:
In general, the pharmacokinetics are favorable. […] This is somewhat higher on average than the values for paclitaxel which are 140±70 l.

Another data set deals with tumor. The settings on record: mice; Chou, et al. 2001; cited from earlier work.
The subject of data set [2] is paclitaxel-sensitive and paclitaxel-resistant cell lines and xenographs. To be noted: cited from earlier work.
For data set [3] the following is noted: comparison value for paclitaxel; cited from earlier work.

Method for thymidine phosphorylase: The data from each of the combination analyses was analyzed using [sequence] software (Biosoft, Cambridge, UK), which determined a combination index (“CI”) value for each combination in each of the three cell lines examined.

Regarding `C/C1=C/C[C@@H](/C(C)=C/c2csc(C)n2)OC(=O)C[C@H](O)C(C)(C)C(=O)[C@H](C)[C@@H](O)[C@@H](C)CCC1` [epothilone D, 12,13-deoxyepothilone B], in the data set with thymidine phosphorylase, the “production of thymidine phosphorylase” value is on record as “upregulate”. Moreover, the “dependence of AUC on dosage” value in data set [1] (from 9 to 150 mg/m^2) is “linear”. In addition, in data set [1] (in vivo), the “dose dependence of pharmacokinetics” value is listed as “not dose-dependent” and the “pharmacokinetic parameters, second infusion as compared to first infusion” value is given as “do not change”. Further, in data set [1] (infusion), the “half-life, mean value” came to 9.6 ± 2.2 h and the “volume of distribution (Vz)” value amounted to 172 ± 74 L. Also, in the data set with tumor, the antitumor effects entry is recorded as “dramatic antitumor effects”. Further, in data set [2], the antitumor efficacy result was “has antitumor efficacy”.

Regarding `CC(=O)O[C@H]1C(=O)[C@@]2(C)[C@H]([C@H](OC(=O)c3ccccc3)[C@]3(O)C[C@H](OC(=O)[C@H](O)[C@@H](NC(=O)c4ccccc4)c4ccccc4)C(C)=C1C3(C)C)[C@]1(OC(C)=O)CO[C@@H]1C[C@@H]2O` [paclitaxel], the “volume of distribution (Vz)” value in data set [3] was 140 ± 70 L.
